{
  "source": "patent US12565501B2",
  "about": "“Muscarinic acetylcholine M1 receptor antagonists” (Contineum Therapeutics, Inc., priority 2019, dated 2026)",
  "target": "T1, human M1 receptor (Homo sapiens, UniProt P11229)",
  "T1 sequence (P11229 1-460)": "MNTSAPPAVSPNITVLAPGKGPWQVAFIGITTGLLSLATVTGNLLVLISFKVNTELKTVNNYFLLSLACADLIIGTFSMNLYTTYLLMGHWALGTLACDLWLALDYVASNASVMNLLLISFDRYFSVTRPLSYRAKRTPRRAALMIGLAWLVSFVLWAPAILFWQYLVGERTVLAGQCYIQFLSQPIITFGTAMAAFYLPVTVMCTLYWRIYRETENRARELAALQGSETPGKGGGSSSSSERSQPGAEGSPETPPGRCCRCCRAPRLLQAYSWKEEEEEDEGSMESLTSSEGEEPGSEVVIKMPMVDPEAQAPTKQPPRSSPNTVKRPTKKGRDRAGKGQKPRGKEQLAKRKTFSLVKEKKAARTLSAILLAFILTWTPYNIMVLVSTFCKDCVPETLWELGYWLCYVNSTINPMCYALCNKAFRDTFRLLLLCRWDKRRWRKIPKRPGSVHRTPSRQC",
  "experiment": "In vitro functional assay of muscarinic acetylcholine receptor activity (aequorin calcium flux, reversal of EC80 acetylcholine response)",
  "format": "cell-based",
  "conditions": "CHO-K1 cells stably expressing human M1 receptor with aequorin; acetylcholine at EC80; calcium flux (luminescence); read-out: M1 IC50",
  "procedure": "CHO-K1 cells stably expressing human M1 receptor with aequorin (Perkin Elmer) were grown in F12 media (Gibco) containing 10% FBS (ATCC), 0.4 mg/mL geneticin (Sigma-Aldrich) and 0.25 mg/mL Zeocin (Invitrogen). Cells were grown as per the manufacturer's protocol. For compound testing, cells were grown to confluency and detached gently with Accutase (Sigma-Aldrich) followed by centrifugation for 5 min at 150× g. Cells were then re-suspended in assay buffer (i.e. DMEM/F-12 HEPES without phenol red (Invitrogen) with 0.1% BSA (Sigma-Aldrich)) at a density of 5×10^6 cells/ml. Under sterile conditions, 5 μM coelenterazine (Invitrogen) was added to the cells, mixed, then incubated at room temperature protected from light, with gentle agitation, for 4 h.\nPrimary compound plates were prepared in 100% DMSO in opaque 96-well plates (VWR) and serially diluted in half log increments. Secondary compound plates were prepared at 3× concentration in assay buffer. Compounds were added to white, clear bottom tissue culture treated 96-well plates (Fisher Scientific). Coelenterazine-loaded cells were then added at 5×10^5 cells/well.\nCompounds and cells were incubated at room temperature for 30 min in the dark. Acetylcholine at the EC80 concentration was added and calcium flux measured using a FlexStation 3 (Molecular Devices). Sigmoidal dose-response curves were generated by measuring luminescence over 40 sec and calculating the area under the curve. Dose response curves and IC50 values were generated using Prism (GraphPad). Compounds were tested at a final concentration range of 100 μM to […] in 0.1% DMSO.",
  "data": [
    {"smiles": "COc1cc(C(F)(F)C2CC2C(=O)N2CC3CCC(C2)N3c2ccc(C#N)cn2)ccn1", "note": "(racemic) [Example 166, 6-(3-(2-(difluoro(2-methoxypyridin-4-yl)methyl)cyclopropane-1-carbonyl)-3,8-diazabicyclo[3.2.1]octan-8-yl)nicotinonitrile]", "values": [
      {"measurement": "IC50", "value": "1000 to 10000", "unit": "nM"}
    ]},
    {"smiles": "CC(c1ccc(F)cc1)[S+]([O-])CC(=O)N1CC2CCC(C1)N2c1ccc(C#N)cn1", "note": "(racemic) [Example 167, 6-(3-(2-((1-(4-fluorophenyl)ethyl)sulfinyl)acetyl)-3,8-diazabicyclo[3.2.1]octan-8-yl)nicotinonitrile]", "values": [
      {"measurement": "IC50", "value": "100 to 1000", "unit": "nM"}
    ]},
    {"smiles": "CC(c1ccccc1)[S+]([O-])CC(=O)N1CC2CCC(C1)N2c1ccc(C#N)cn1", "note": "(racemic) [Example 168, 6-(3-(2-((1-phenylethyl)sulfinyl)acetyl)-3,8-diazabicyclo[3.2.1]octan-8-yl)nicotinonitrile]", "values": [
      {"measurement": "IC50", "value": "1000 to 10000", "unit": "nM"}
    ]},
    {"smiles": "CC(c1ccccc1)[S+]([O-])CCC(=O)N1CC2CCC(C1)N2c1ccc(C#N)cn1", "note": "(racemic) [Example 169, 6-(3-(3-((1-phenylethyl)sulfinyl)propanoyl)-3,8-diazabicyclo[3.2.1]octan-8-yl)nicotinonitrile]", "values": [
      {"measurement": "IC50", "value": "1000 to 10000", "unit": "nM"}
    ]},
    {"smiles": "CC(c1ccc(F)cc1)[S+]([O-])CCC(=O)N1CC2CCC(C1)N2c1ccc(C#N)cn1", "note": "(racemic) [Example 170, 6-(3-(3-((1-(4-fluorophenyl)ethyl)sulfinyl)propanoyl)-3,8-diazabicyclo[3.2.1]octan-8-yl) nicotinonitrile]", "values": [
      {"measurement": "IC50", "value": "> 1000", "unit": "nM"}
    ]},
    {"smiles": "CC(c1ccccc1Br)[S+]([O-])CCC(=O)N1CC2CCC(C1)N2c1ccc(C#N)cn1", "note": "(racemic) [Example 171, 6-(3-(3-((1-(2-bromophenyl)ethyl)sulflnyl)propanoyl)-3,8-diazabicyclo[3.2.1]octan-8-yl) nicotinonitrile]", "values": [
      {"measurement": "IC50", "value": "> 1000", "unit": "nM"}
    ]},
    {"smiles": "CC(c1ccccc1)S(=O)(=O)CC(=O)N1CC2CCC(C1)N2c1ccc(C#N)cn1", "note": "(racemic) [Example 172, 6-(3-(2-((1-phenylethyl)sulfonyl)acetyl)-3,8-diazabicyclo[3.2.1]octan-8-yl)nicotinonitrile]", "values": [
      {"measurement": "IC50", "value": "> 1000", "unit": "nM"}
    ]},
    {"smiles": "CC(c1ccc(F)cc1)S(=O)(=O)CC(=O)N1CC2CCC(C1)N2c1ccc(C#N)cn1", "note": "(racemic) [Example 173, 6-(3-(2-((1-(4-fluorophenyl)ethyl)sulfonyl)acetyl)-3,8-diazabicyclo[3.2.1]octan-8-yl)nicotinonitrile]", "values": [
      {"measurement": "IC50", "value": "1000 to 10000", "unit": "nM"}
    ]},
    {"smiles": "CC(c1ccccc1)S(=O)(=O)CCC(=O)N1CC2CCC(C1)N2c1ccc(C#N)cn1", "note": "(racemic) [Example 174, 6-(3-(3-((1-phenylethyl)sulfonyl)propanoyl)-3,8-diazabicyclo[3.2.1]octan-8-yl)nicotinonitrile]", "values": [
      {"measurement": "IC50", "value": "> 1000", "unit": "nM"}
    ]},
    {"smiles": "CC(c1ccc(F)cc1)S(=O)(=O)CCC(=O)N1CC2CCC(C1)N2c1ccc(C#N)cn1", "note": "(racemic) [Example 175, 6-(3-(3-((1-(4-fluorophenyl)ethyl)sulfonyl)propanoyl)-3,8-diazabicyclo[3.2.1]octan-8-yl) nicotinonitrile]", "values": [
      {"measurement": "IC50", "value": "> 1000", "unit": "nM"}
    ]},
    {"smiles": "CC(c1ccccc1Br)S(=O)(=O)CCC(=O)N1CC2CCC(C1)N2c1ccc(C#N)cn1", "note": "(racemic) [Example 176, 6-(3-(3-((1-(2-bromophenyl)ethyl)sulfonyl)propanoyl)-3,8-diazabicyclo[3.2.1]octan-8-yl) nicotinonitrile]", "values": [
      {"measurement": "IC50", "value": "1000 to 10000", "unit": "nM"}
    ]},
    {"smiles": "N#Cc1ccc(N2C3CCC2CN(C(=O)COC2CCc4ccc(F)cc42)C3)nc1", "note": "(racemic) [Example 183, 6-(3-(2-((6-fluoro-2,3-dihydro-1H-inden-1-yl)oxy)acetyl)-3,8-diazabicyclo[3.2.1]octan-8-yl)nicotinonitrile]", "values": [
      {"measurement": "IC50", "value": "10 to 100", "unit": "nM"}
    ]},
    {"smiles": "N#Cc1ccc(N2C3CCC2CN(C(=O)COC2CCc4cc(F)ccc42)C3)nc1", "note": "(racemic) [Example 184, 6-(3-(2-((5-fluoro-2,3-dihydro-1H-inden-1-yl)oxy)acetyl)-3,8-diazabicyclo[3.2.1]octan-8-yl)nicotinonitrile]", "values": [
      {"measurement": "IC50", "value": "10 to 100", "unit": "nM"}
    ]},
    {"smiles": "CC(OCC(=O)N1CC2CCC(C1)N2c1ccc(C#N)cn1)c1ccc(C(F)(F)F)nc1", "note": "(racemic) [Example 190, 6-(3-(2-(1-(6-(trifluoromethyl)pyridin-3-yl)ethoxy)acetyl)-3,8-diazabicyclo[3.2.1]octan-8-yl)nicotinonitrile]", "values": [
      {"measurement": "IC50", "value": "> 1000", "unit": "nM"}
    ]},
    {"smiles": "CC(OCC(=O)N1CC2CCC(C1)N2c1ccc(C#N)cn1)c1cccc2ncnn12", "note": "(racemic) [Example 191, 6-(3-(2-(1-([1,2,4]triazolo[1,5-a]pyridin-5-yl)ethoxy)acetyl)-3,8-diazabicyclo[3.2.1]octan-8-yl)nicotinonitrile]", "values": [
      {"measurement": "IC50", "value": "10 to 100", "unit": "nM"}
    ]},
    {"smiles": "CC(OCC(=O)N1CC2CCC(C1)N2c1ccc(C#N)cn1)c1cccc2ncccc12", "note": "(racemic) [Example 192, 6-(3-(2-(1-(quinolin-5-yl)ethoxy)acetyl)-3,8-diazabicyclo[3.2.1]octan-8-yl)nicotinonitrile]", "values": [
      {"measurement": "IC50", "value": "< 10", "unit": "nM"}
    ]},
    {"smiles": "CC(OCC(=O)N1CC2CCC(C1)N2c1ccc(C#N)cn1)c1cccc2nccnc12", "note": "(racemic) [Example 193, 6-(3-(2-(1-(quinoxalin-5-yl)ethoxy)acetyl)-3,8-diazabicyclo[3.2.1]octan-8-yl)nicotinonitrile]", "values": [
      {"measurement": "IC50", "value": "< 10", "unit": "nM"}
    ]},
    {"smiles": "N#Cc1ccc(N2C3CCC2CN(C(=O)COC(c2ccc(F)c(F)c2)C2CC2)C3)nc1", "note": "(racemic) [Example 194, 6-(3-(2-(cyclopropyl(3,4-difluorophenyl)methoxy)acetyl)-3,8-diazabicyclo[3.2.1]octan-8-yl)nicotinonitrile]", "values": [
      {"measurement": "IC50", "value": "100 to 1000", "unit": "nM"}
    ]},
    {"smiles": "N#Cc1ccc(N2C3CCC2CN(C(=O)COC(c2cccc4ncnn24)C2CC2)C3)nc1", "note": "(racemic) [Example 195, 6-(3-(2-([1,2,4]triazolo[1,5-a]pyridin-5-yl(cyclopropyl)methoxy)acetyl)-3,8-diazabicyclo[3.2.1]octan-8-yl)nicotinonitrile]", "values": [
      {"measurement": "IC50", "value": "10 to 100", "unit": "nM"}
    ]},
    {"smiles": "CC(OCC(=O)N1CC2CCC(C1)N2c1ccc(C#N)cn1)c1cccn2ncnc12", "note": "(racemic) [Example 196, 6-(3-(2-(1-([1,2,4]triazolo[1,5-a]pyridin-8-yl)ethoxy)acetyl)-3,8-diazabicyclo[3.2.1]octan-8-yl)nicotinonitrile]", "values": [
      {"measurement": "IC50", "value": "< 10", "unit": "nM"}
    ]},
    {"smiles": "Cc1noc(C)c1C(C)OCC(=O)N1CC2CCC(C1)N2c1ccc(C#N)cn1", "note": "(racemic) [Example 197, 6-(3-(2-(1-(3,5-dimethylisoxazol-4-yl)ethoxy)acetyl)-3,8-diazabicyclo[3.2.1]octan-8-yl)nicotinonitrile]", "values": [
      {"measurement": "IC50", "value": "< 10", "unit": "nM"}
    ]},
    {"smiles": "Cc1nn(C)c(C)c1C(C)OCC(=O)N1CC2CCC(C1)N2c1ccc(C#N)cn1", "note": "(racemic) [Example 198, 6-(3-(2-(1-(1,3,5-trimethyl-1H-pyrazol-4-yl)ethoxy)acetyl)-3,8-diazabicyclo[3.2.1]octan-8-yl)nicotinonitrile]", "values": [
      {"measurement": "IC50", "value": "10 to 100", "unit": "nM"}
    ]},
    {"smiles": "N#Cc1ccc(N2C3CCC2CN(C(=O)COC(c2cccc4ncccc24)C(F)F)C3)nc1", "note": "(racemic) [Example 199, 6-(3-(2-(2,2-difluoro-1-(quinolin-5-yl)ethoxy)acetyl)-3,8-diazabicyclo[3.2.1]octan-8-yl)nicotinonitrile]", "values": [
      {"measurement": "IC50", "value": "< 10", "unit": "nM"}
    ]},
    {"smiles": "N#Cc1ccc(N2C3CCC2CN(C(=O)COC(c2ccc(F)cc2)C(F)F)C3)nc1", "note": "(racemic) [Example 200, 6-(3-(2-(2,2-difluoro-1-(4-fluorophenyl)ethoxy)acetyl)-3,8-diazabicyclo[3.2.1]octan-8-yl)nicotinonitrile]", "values": [
      {"measurement": "IC50", "value": "10 to 100", "unit": "nM"}
    ]},
    {"smiles": "N#Cc1ccc(N2C3CCC2CN(C(=O)COC(c2ccc(F)c(F)c2)C(F)F)C3)nc1", "note": "(racemic) [Example 201, 6-(3-(2-(1-(3,4-difluorophenyl)-2,2-difluoroethoxy)acetyl)-3,8-diazabicyclo[3.2.1]octan-8-yl)nicotinonitrile]", "values": [
      {"measurement": "IC50", "value": "10 to 100", "unit": "nM"}
    ]},
    {"smiles": "COc1cncc(C(OCC(=O)N2CC3CCC(C2)N3c2ccc(C#N)cn2)C(F)F)c1", "note": "(racemic) [Example 202, 6-(3-(2-(2,2-difluoro-1-(5-methoxypyridin-3-yl)ethoxy)acetyl)-3,8-diazabicyclo[3.2.1]octan-8-yl)nicotinonitrile]", "values": [
      {"measurement": "IC50", "value": "< 10", "unit": "nM"}
    ]},
    {"smiles": "CC(C)(OCC(=O)N1CC2CCC(C1)N2c1ccc(C#N)cn1)c1cccc2ncnn12", "note": "(racemic) [Example 203, 6-(3-(2-((2-([1,2,4]triazolo[1,5-a]pyridin-5-yl)propan-2-yl)oxy)acetyl)-3,8-diazabicyclo[3.2.1]octan-8-yl)nicotinonitrile]", "values": [
      {"measurement": "IC50", "value": "100 to 1000", "unit": "nM"}
    ]},
    {"smiles": "CC(C)(OCC(=O)N1CC2CCC(C1)N2c1ccc(C#N)cn1)c1cccc2nccn12", "note": "(racemic) [Example 204, 6-(3-(2-((2-(imidazo[1,2-a]pyridin-5-yl)propan-2-yl)oxy)acetyl)-3,8-diazabicyclo[3.2.1]octan-8-yl)nicotinonitrile]", "values": [
      {"measurement": "IC50", "value": "100 to 1000", "unit": "nM"}
    ]}
  ]
}
